From patent US20260028390A1, “ALPHA1-ANTITRYPSIN FOR USE IN THE TREATMENT OF DISEASES OR DISORDERS OF THE NERVOUS SYSTEM SUCH AS CHRONIC INFLAMMATORY DEMYELINATING POLYNEUROPATHY” (Ageronix SA, priority 2022, published 2026)
Where “and” joins values, the source holds several entries; their conditions need not be identical. Equal entries are not always repeated.

Columns and labels:
[1] = system: plasma IL-6; test: Plasma IL-6 concentration, CMT1A mouse study (50 mg/kg twice daily); assay type: in vivo; settings: for Plasma IL-6 concentration (Mean ± SD): CMT1A mice
Method: Animals were split in 3 groups (wild-type control (subcutaneous 0.9% NaCl), CMT1A-vehicle (subcutaneous 0.9% NaCl), CMT1A-human alpha-1 antitrypsin (subcutaneous, twice daily, 50 mg/kg per injection)) of 3 mice each (3 weeks old males of 18±2.5 g at the beginning of study) and all went through the following protocol after 7 days of acclimation on site.
Starting from the age of 4 weeks, animals were subjected to blood samplings for the determination of interleukin-6 (IL-6) and tumor necrosing factor alpha (TNFα) levels, as described in FIG. 16.

[2] = system: plasma TMPRSS5; test: Plasma TMPRSS5, CIDP mouse model; assay type: in vivo; settings: CIDP + AAT
Method: C57BL/6 mice were received at 8 weeks of age and housed under controlled conditions for the duration of the study. Three groups of 4 animals each were assigned to the following subcutaneous treatments twice daily at 7:00 AM and 7:00 PM for 2 weeks, from 20 to 35 days after the start of disease induction: • Wild type (WT) mice receiving the vehicle, 0.9% NaCl (positive control) • CIDP mice receiving the vehicle, 0.9% NaCl (negative control) • CIDP mice receiving human AAT (AAT), 50 mg/kg per injection
On the day preceding disease induction (Day 1), on the first (Day 20) and on the last (Day 35) treatment day, animals were subjected to blood samplings for the determination of neurofilament light chain (NfL), tumour necrosing factor alpha (TNFα) and TMPRSS5 levels, as described in FIG. 20. In addition, plasma levels of AAT were evaluated on the last treatment day.

[3] = system: CMT1A mice B6.Cg-Tg(PMP22)C3Fbas/J; test: Rotarod latency to fall, CMT mice treated with AAT 180 mg/kg/day sc; assay type: in vivo, mouse
Method: CMT MOUSE MODEL: Non-humanized CMT1A mice B6.Cg-Tg(PMP22)C3Fbas/J (three copies of the PMP22 gene), three groups of 8 animals each.
DOSAGE: 180 mg/kg/day non-clinical grade AAT (Sigma)
ADMINISTRATION: Subcutaneous (SC) (bi-daily injection of 90 mg/kg)
(§1) Animals were received at 6 weeks of age and housed under controlled conditions for the duration of the study. The study comprised two groups of 8 transgenic mice (CMT mice) each and one group of 8 age matched wild type (WT) C57B16 mice, serving as positive control. Animals were assigned to the following subcutaneous treatments twice daily at 7:00 AM and 7:00 PM for 2 weeks, starting from 8 weeks and up to 10 weeks of age: • Wild-type (WT, no disease) mice receiving vehicle, 0.9% NaCl (positive control) • CMT1A mice receiving vehicle, 0.9% NaCl (negative control) • CMT1A mice receiving AAT at 90 mg/kg per injection (daily dose 180 mg/kg)
(§2) The efficacy parameters included: • neuromuscular performance (rotarod latency to fall and grip strength test), • sciatic nerve electrophysiology (CMAP amplitude and NCV) • cytokine (IL-6 and TNFα), as well as NfL analysis • sciatic nerve histology (number of axons and axonal diameter),
On the first day of treatment (Day 1), the neuromuscular and performance of animals was tested with a rotarod test and a grip strength test, as well as sciatic nerve electrophysiology test, which measured the compound muscle action potential (CMAP) and the nerve conduction velocity (NCV). After the last treatment on Day 15, these tests were repeated. Animals were then left untreated for 2 additional weeks to evaluate the duration of the treatment effect. Following the 2-week treatment-free period until 12 weeks of age (Day 30), the behavioural and electrophysiological tests were repeated.

[4] = system: plasma TNFα; test: Plasma TNFα, CMT mice treated with AAT 180 mg/kg/day sc; assay type: in vivo, mouse
Text: as §1, §2
(§3) As supportive information for the mode of action of AAT in CMT, plasma concentration of interleukin 6 (IL-6) and TNFα were measured at Day 1 (8 weeks), Day 15 (10 weeks) and Day 30 (12 weeks). At the same timepoints, plasma levels of the biomarker of nerve damage, NfL were determined.

[5] = system: plasma NfL; test: Plasma NfL, CMT mice treated with AAT 180 mg/kg/day sc; assay type: in vivo, mouse
Text: as §1, §2, §3

[6] = system: CMT1A mice B6.Cg-Tg(PMP22)C3Fbas/J; test: Sciatic nerve histology, CMT mice treated with AAT 180 mg/kg/day sc; assay type: in vivo, mouse
Text: as §1, §2

[7] = system: Human Schwann cells; test: TNFα-induced Schwann cell activation, target gene expression by qPCR; assay type: cell-based; settings: AAT 50 μM pre-treatment 24 hours, TNFα 10 ng/mL 24 hours
Method: Human Schwann cells (P10351, Innoprot) were seeded in 12 well plates at 120000 cells per well in DMEM. Cells were pre-treated with either buffer (controls) or AAT (50 μM) for 24 hours before stimulation by TNFα (10 ng/mL). The plates were then incubated at 37° C. for 24 hours. The RNA was extracted and selected target gene expression was measured by qPCR.
The genes evaluated for their regulation included the NF-κB early gene response NFKBIA, as well as the TNFα and TNFR1 genes. Expression of the gene coding for the IL-6 pro-inflammatory cytokine was also evaluated.

[8] = 8 weeks old (baseline, Day 1), CMT1A + AAT
[9] = 8 weeks old, CMT + hAAT 180 mg/kg/day SC, 8 animals
[10] = 8 weeks old, CMT + hAAT 180 mg/kg/day SC, individual animal
[11] = 10 weeks old (Day 15, after 2 weeks AAT 90 mg/kg sc twice daily)
[12] = 12 weeks of age, after 2-week treatment-free period
[13] = 12 weeks old (Day 30, after 2-week treatment-free period)
[14] = CMT1A + AAT 90 mg/kg sc twice daily
[15] = CMT mice, AAT 180 mg/kg daily dose
[16] = after 2 weeks treatment free period

alpha1-antitrypsin (AAT) protein
Plasma IL-6 concentration (Mean ± SD) ([1]; Day 1 (baseline)): 34.19 ± 1.67 pg/mL | Plasma IL-6 concentration (Mean ± SD) ([1]; Day 8): 39.10 ± 1.91 pg/mL | Plasma IL-6 concentration (Mean ± SD) ([1]; Day 14): 84.21 ± 4.727 pg/mL | Plasma IL-6 concentration (Mean ± SD) ([1]; Day 29): 90.20 ± 3.085 ^† pg/mL | plasma IL-6 concentration vs animals treated with vehicle ([1]; CMT + AAT, day 29): lower | plasma TMPRSS5 concentration compared to the vehicle group [2]: No statistically significant differences | Rotarod latency (Mean ± SD) [3, 8]: 38.76 ± 4.90 s | Rotarod latency, group Mean [3, 9]: 62.63 s | Rotarod latency, Mean/animal [3, 10]: 63.15 s and 51.81 s and 53.95 s and 52.25 s and 38.51 s and 92.09 s and 74.02 s and 75.23 s | Rotarod latency, set 1 [3, 10]: 55.48 s and 48.88 s and 60.00 s and 47.76 s and 30.45 s and 96.29 s and 74.06 s and 68.88 s | Rotarod latency, set 2 [3, 10]: 61.08 s and 61.14 s and 48.80 s and 53.19 s and 62.45 s and 79.58 s and 65.45 s and 74.87 s | Rotarod latency, set 3 [3, 10]: 72.89 s and 45.41 s and 53.05 s and 55.82 s and 22.62 s and 100.40 s and 82.56 s and 81.93 s | Rotarod latency (Mean ± SD) [3, 11]: 57.77 ± 19.19 s | rotarod latency to fall vs untreated group [3, 12]: non-significantly different | Rotarod latency (Mean ± SD) [3, 13]: 36.92 ± 1.66 s | Plasma TNFα (Mean ± SD) [4, 8]: 9.80 ± 2.25 pg/mL | Plasma TNF-α concentration, group Mean [4, 9]: 6.94 pg/mL | Plasma TNF-α concentration [4, 10]: 7.04 pg/mL and 7.89 pg/mL and 7.91 pg/mL and 5.44 pg/mL and 7.90 pg/mL and 5.34 pg/mL and 8.02 pg/mL and 5.95 pg/mL | Plasma TNFα (Mean ± SD) [4, 11]: 6.55 ± 2.11 pg/mL | positive effect on TNFα plasma levels [4, 12]: remained significant | Plasma TNFα (Mean ± SD) [4, 13]: 11.61 ± 1.00 pg/mL | plasma levels of TNFα ([4]; CMT mice, AAT 90 mg/kg sc twice a day, P<0.0001): reduced | Plasma NfL (Mean ± SD) [5, 8]: 3.83 ± 0.61 ng/mL | Plasma NfL (Mean ± SD) [5, 11]: 1.96 ± 0.46 ng/mL | positive effect on NfL plasma levels [5, 12]: remained significant | Plasma NfL (Mean ± SD) [5, 13]: 4.25 ± 0.36 ng/mL | level of NfL ([5]; CMT mice, AAT 90 mg/kg sc twice a day): reduced | Sciatic nerve histology, Axonal diameter (Mean ± SD) [6, 14]: 3.84 ± 0.25 μm | Sciatic nerve histology, Axons/100 μm2 (Mean ± SD) [6, 14]: 26.30 ± 2.00 | Sciatic nerve histology, g-ratio (Mean ± SD) [6, 14]: 0.62 ± 0.16 | axonal diameter relative to untreated CMT animals [6, 15]: increase | g-ratio relative to untreated CMT animals [6, 15]: decrease | number of axons in the treated animals [6, 16]: significantly larger | size of the myelin sheath in the treated animals [6, 16]: significantly larger | NF-κb pathway transcripts [7]: downregulated | expression of genes modulated by TNF-induced oxidative stress response [7]: inhibited
